The values that follow come from US12264173B2 (GILEAD SCIENCES, INC., priority 2020, dated 2025).

pIC50: −log10 of the molar value.

In assay [1] the target is T1, POLRMT (Homo sapiens, UniProt O00411). Kind of assay: Single nucleotide incorporation by human mitochondrial RNA polymerase (POLRMT). Particulars: nucleotide triphosphate. The assay is classed as biochemical. How it is done:
A mixture of MTCN buffer (50 mM MES, 25 mM Tris-HCl, 25 mM CAPS, and 50 mM NaCl, pH 7.5), 200 nM 5′^32 P-R12/D18, 10 mM MgCl2, 1 mM DTT, and 376 nM POLRMT was preincubated at 30° C. for 1 min. The reaction was started by addition of 500 μM (final) natural NTP or NTP analogs. At selected time points, the reaction mixture was removed and quenched with gel loading buffer containing 100 mM EDTA, 80% formamide, and bromophenol blue, and heated at 65° C. for 5 min. The samples were run on a 20% polyacrylamide gel (8 M urea), and the product formation was quantified using Typhoon Trio Imager and Image Quant TL Software (GE Healthcare, Piscataway, NJ). The rate of single nucleotide incorporation by mt RNA pol was calculated by fitting the product formation using the single exponential equation: [1R13]=A(1−e^−kt), where [1R13] represents the amount (in nM) of the elongated product formed, t represents the reaction time, k represents the observed rate, and A represents the amplitude of the exponential.

In assay [2] the target is DENV2 NS5 (Dengue virus type 2, UniProt P14340). Kind of assay: DENV Pol IC50 (DENV2-NS5 polymerase assay). The assay is classed as biochemical. To be noted: nucleotide triphosphate. The procedure: A 244 nucleotide secondary structureless heteropolymeric RNA (sshRNA) with sequence 5′-(UCAG)20(UCCAAG)14(UCAG)20-3′ (SEQ ID NO: 1) is used as the template with 5′-CUG-3′ primer in the DENV2-NS5 polymerase assay. Six two-fold dilutions of compounds starting from 200 nM and no inhibitor control are plated in 96-well plates. 100 nM DENV2 NS5 is preincubated for 5 minutes at room temperature in a reaction mixture containing 40 mM Tris-HCl (pH 7.5), 10 mM NaCl, 3 mM DTT, 0.2 unit/μL RNasin Plus RNase Inhibitor, 200 ng/μL sshRNA, 20 μM CUG and 2 mM MgCl2. Enzyme mix is added to compound dilutions and reactions initiated by the addition of a mixture containing 20 μM of three natural NTP plus 2 μM of analog:base matched competing natural NTP containing 1:100 α-33P-NTP. After 90 minutes at 30° C., 5 μL of the reaction mixtures are spotted on DE81 anion exchange paper. Filter papers are washed three times with Na2HPO4 (125 mM, pH 9) for 5 minutes, rinsed with water and ethanol, then air-dried and exposed to phosphorimager. Synthesized RNA is quantified using Typhoon Trio Imager and Image Quant TL Software and reaction rates are calculated by linear regression using GraphPad Prism 5.0. IC50 values are calculated in Prism by non-linear regression analysis using the dose-response (variable slope) equation (four-parameter logistic equation): Y=Bottom+(Top-Bottom)/(1+10^((Log IC50−X)*HillSlope)).

Assay [3] deals with T2, RSV RNP complexes (Human respiratory syncytial virus A, UniProt P28887).
T2 construct: The supernatant (S3) fraction, containing the enriched RSV RNP complexes, was collected; endogenous in cells; host or cells: HEp-2 cells infected with RSV A2; detergent-extracted S3 fraction
T2 sequence (P03421 whole entry): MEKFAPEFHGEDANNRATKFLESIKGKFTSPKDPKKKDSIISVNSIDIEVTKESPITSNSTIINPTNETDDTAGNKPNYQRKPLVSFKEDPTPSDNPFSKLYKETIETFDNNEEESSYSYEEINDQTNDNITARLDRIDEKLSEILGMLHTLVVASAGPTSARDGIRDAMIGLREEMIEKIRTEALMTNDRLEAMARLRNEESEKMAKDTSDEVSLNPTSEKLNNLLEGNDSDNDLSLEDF
T2 sequence (P28887 whole entry): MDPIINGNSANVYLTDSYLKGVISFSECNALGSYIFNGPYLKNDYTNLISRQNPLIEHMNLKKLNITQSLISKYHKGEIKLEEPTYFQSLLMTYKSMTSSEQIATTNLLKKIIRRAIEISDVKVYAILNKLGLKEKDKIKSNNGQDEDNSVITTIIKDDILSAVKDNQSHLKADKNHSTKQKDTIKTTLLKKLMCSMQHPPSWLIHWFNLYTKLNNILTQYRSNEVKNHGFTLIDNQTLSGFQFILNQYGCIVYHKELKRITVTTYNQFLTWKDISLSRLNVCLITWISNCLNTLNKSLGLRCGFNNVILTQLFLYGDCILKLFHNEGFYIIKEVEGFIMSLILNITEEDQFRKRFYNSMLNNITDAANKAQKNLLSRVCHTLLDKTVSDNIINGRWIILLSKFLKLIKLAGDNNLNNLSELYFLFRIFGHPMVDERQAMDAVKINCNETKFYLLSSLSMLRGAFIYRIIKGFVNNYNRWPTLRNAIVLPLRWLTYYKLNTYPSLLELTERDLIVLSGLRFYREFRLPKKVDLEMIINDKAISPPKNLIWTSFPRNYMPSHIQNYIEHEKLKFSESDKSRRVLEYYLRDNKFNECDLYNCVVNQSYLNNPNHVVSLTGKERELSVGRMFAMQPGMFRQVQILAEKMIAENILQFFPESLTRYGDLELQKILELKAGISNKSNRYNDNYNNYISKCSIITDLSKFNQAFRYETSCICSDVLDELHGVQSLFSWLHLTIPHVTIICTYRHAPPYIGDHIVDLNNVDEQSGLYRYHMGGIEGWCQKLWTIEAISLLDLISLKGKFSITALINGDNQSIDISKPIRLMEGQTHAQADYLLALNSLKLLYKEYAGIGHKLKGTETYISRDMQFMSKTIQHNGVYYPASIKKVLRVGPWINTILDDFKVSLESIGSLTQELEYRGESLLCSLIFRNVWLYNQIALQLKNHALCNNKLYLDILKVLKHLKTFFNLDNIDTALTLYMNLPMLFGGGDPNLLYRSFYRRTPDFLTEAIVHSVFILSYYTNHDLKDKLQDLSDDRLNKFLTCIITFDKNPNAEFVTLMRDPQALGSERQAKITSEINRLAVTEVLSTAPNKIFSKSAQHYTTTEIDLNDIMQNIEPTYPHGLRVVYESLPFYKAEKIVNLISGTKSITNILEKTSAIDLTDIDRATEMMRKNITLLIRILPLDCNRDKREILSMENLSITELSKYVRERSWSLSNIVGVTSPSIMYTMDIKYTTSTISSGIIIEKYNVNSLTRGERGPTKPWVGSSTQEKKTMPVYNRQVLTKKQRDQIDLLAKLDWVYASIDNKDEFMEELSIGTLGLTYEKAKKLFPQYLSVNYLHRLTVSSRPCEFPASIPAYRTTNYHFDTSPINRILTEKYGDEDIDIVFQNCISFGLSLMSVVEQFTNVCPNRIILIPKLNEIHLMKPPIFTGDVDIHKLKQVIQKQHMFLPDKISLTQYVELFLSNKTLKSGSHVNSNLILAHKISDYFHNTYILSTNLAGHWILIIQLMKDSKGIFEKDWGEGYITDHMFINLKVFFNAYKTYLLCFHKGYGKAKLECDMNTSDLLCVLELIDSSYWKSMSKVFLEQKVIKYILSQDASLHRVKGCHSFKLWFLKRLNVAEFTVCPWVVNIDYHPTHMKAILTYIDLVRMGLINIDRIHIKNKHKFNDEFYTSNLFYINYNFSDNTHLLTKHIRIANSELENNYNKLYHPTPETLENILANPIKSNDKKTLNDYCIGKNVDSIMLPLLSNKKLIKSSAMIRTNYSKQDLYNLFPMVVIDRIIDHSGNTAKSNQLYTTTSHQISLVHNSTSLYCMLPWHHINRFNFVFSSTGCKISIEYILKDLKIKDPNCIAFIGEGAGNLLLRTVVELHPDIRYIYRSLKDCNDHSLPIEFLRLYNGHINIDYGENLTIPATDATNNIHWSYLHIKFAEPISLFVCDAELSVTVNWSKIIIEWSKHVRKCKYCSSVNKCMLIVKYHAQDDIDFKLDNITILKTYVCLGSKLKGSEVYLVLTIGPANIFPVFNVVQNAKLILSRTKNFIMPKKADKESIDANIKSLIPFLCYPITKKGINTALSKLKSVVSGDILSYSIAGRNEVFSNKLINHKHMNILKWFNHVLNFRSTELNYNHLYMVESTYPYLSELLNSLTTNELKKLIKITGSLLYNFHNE
Kind of assay: RSV RNP assay (transcription). The assay is classed as biochemical, RSV A2. How it is done: RSV ribonucleoprotein (RNP) complexes were prepared from a method modified from Mason et al. (1). HEp-2 cells were plated at a density of 7.1×10^4 cells/cm^2 in MEM+10% fetal bovine serum (FBS) and allowed to attach overnight at 37° C. (5% CO2). Following attachment, the cells were infected with RSV A2 (MOI=5) in 35 mL MEM+2% FBS. At 20 hours post-infection, the media was replaced with MEM+2% FBS supplemented with 2 μg/mL actinomycin D and returned to 37° C. for one hour. The cells were then washed once with PBS and treated with 35 mL of PBS+250 μg/mL lyso-lecithin for one minute, after which all liquid was aspirated. […] The supernatant (S3) fraction, containing the enriched RSV RNP complexes, was collected and the protein concentration determined by UV absorbance at 280 nm. […]
Transcription reactions contained 25 μg of crude RSV RNP complexes in 30 μL of reaction buffer [50 mM TRIS-acetate (pH 8.0), 120 mM potassium acetate, 5% glycerol, 4.5 mM MgCl2, 3 mM DTT, 2 mM ethyleneglycol-bis(2-aminoethylether)-tetraacetic acid (EGTA), 50 μg/mL BSA, 2.5 U RNasin (Promega), ATP, GTP, UTP, CTP and 1.5 uCi [α-32P] […] The radiolabled nucleotide used in the transcription assay was selected to match the nucleotide analog being evaluated for inhibition of RSV RNP transcription. […]

The target of assay [4] is T1, POLRMT. Kind of assay: Inhibition of human mitochondrial RNA polymerase (POLRMT). The assay is classed as biochemical. Particulars: nucleotide triphosphate. How it is done:
All reaction mixtures contained 50 mM Tris-HCl buffer (pH 8.0), 0.2 mg/ml BSA, 2 mM DTT, 0.05 mg/ml activated fish sperm DNA, 10 mM MgCl2, 1.3 μCi [α-^33P]dTTP (3,000 Ci/mmol), and 2 μMeach of dATP, dGTP, and TTP. The optimal enzyme concentrations were chosen to be in the linear range of enzyme concentration ([E]) versus activity, and the reaction time was selected to ensure that 10% of the substrate was consumed. All reactions were run at 37° C. […] The reactions were heated to 32° C. and initiated by adding 2.5 μM each of the four natural NTPs and 1.5 μCi of [^33P]GTP. After incubation for 30 min at 32° C., the reactions were spotted on DE81 paper before being processed for quantification.

T1 sequence (O00411 42-1230): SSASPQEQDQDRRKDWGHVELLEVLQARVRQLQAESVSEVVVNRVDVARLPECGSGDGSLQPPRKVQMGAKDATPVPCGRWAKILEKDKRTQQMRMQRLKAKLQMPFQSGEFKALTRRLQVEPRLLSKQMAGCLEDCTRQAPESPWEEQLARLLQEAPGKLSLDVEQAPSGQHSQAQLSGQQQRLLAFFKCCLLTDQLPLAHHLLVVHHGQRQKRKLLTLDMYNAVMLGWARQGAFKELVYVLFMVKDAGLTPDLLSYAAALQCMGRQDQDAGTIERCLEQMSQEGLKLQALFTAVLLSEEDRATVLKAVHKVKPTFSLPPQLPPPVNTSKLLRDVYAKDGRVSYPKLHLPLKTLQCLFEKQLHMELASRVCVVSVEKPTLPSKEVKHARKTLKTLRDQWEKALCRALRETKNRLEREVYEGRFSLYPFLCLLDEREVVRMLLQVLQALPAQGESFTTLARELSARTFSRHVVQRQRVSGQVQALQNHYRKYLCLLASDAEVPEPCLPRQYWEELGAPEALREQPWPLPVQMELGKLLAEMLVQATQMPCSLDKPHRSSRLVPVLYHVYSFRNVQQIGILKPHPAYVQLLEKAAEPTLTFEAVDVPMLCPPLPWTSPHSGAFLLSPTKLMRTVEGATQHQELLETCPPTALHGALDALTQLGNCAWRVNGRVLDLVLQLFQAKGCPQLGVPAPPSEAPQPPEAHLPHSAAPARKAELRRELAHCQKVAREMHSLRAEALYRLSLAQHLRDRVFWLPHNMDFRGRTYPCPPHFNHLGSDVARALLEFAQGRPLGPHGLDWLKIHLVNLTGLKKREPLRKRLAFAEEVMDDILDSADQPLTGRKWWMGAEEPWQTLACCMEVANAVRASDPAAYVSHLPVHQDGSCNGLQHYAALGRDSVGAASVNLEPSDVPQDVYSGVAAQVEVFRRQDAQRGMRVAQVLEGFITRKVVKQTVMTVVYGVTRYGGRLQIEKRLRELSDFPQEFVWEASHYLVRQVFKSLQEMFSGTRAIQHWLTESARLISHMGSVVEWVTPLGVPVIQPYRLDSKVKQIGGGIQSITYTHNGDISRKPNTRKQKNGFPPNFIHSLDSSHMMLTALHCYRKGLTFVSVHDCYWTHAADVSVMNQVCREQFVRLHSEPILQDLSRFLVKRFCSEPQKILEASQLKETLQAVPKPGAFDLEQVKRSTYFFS

A word on the pIC50: it is −log10 of the IC50, conventionally taken in molar units. As to `Nc1ncnn2c([C@@H]3O[C@](CCl)(COP(=O)(O)OP(=O)(O)OP(=O)(O)O)[C@@H](O)[C@H]3O)ccc12` [—CH2Cl], in assay [1], the “POLRMT SNI %” value turned out to be 0.11%. Moreover, the negative-log IC50 (pIC50) in assay [2] is 5.15; in assay [3] it was 5.96.
Regarding `N#C[C@]1(COP(=O)(O)OP(=O)(O)OP(=O)(O)O)O[C@@H](c2ccc3c(N)ncnn23)[C@H](O)[C@@H]1O` [—CN], the pIC50 in assay [4] is less than 3.70; in assay [2], 6.08; in assay [3], 7.36. The “POLRMT SNI %” value in assay [1] was 0.6%.
Consider `[N-]=[N+]=N[C@]1(COP(=O)(O)OP(=O)(O)OP(=O)(O)O)O[C@@H](c2ccc3c(N)ncnn23)[C@H](O)[C@@H]1O` [—N3], for which the values for the pIC50 in assay [4] and in assay [2] were 6.05 and 6.85, respectively. Besides, the “POLRMT SNI %” value in assay [1] came to 132%.
